The record followed here is ChEMBL document CHEMBL1149689, “Pomiferin, histone deacetylase inhibitor isolated from the fruits of Maclura pomifera” (Bioorg Med Chem Lett, 2007).

Where only a bound is given, the exact number is not on record here.

The subject of one data set is MDA-MB-231. As to the kind of experiment: cells. It is filed as functional. The settings on record: Homo sapiens, MDA-MB-231, 21 h.
In the next data set the test system is HCT-15. Nature of the data set: cells. It is filed as functional. The settings on record: Homo sapiens, HCT-15, 21 h.
The subject of a further data set is NCI-H23. Nature of the data set: cells. It is filed as functional. Conditions: Homo sapiens, NCI-H23, 21 h.
The next data set concerns ACHN. Nature of the data set: cells. It is filed as functional. The settings on record: Homo sapiens, 21 h.
The nature of a further data set: in vitro. The settings on record: human, hepatocytes.
For another data set, the target named is Histone deacetylase. Nature of the data set: Inhibition of HDAC in HeLa cells. The class given is cell-based, Homo sapiens.
The next data set has as its system LOX IMVI. As to the kind of experiment: cells. The class given is functional. Conditions: Homo sapiens, 21 h.
For another data set, the system named is PC-3. Nature of the data set: cells. It is filed as functional. Conditions: Homo sapiens, PC-3, 21 h.

Description for ACHN: Growth inhibition of human ACHN cells after 21 hrs by MTT assay
Description for HCT-15: Growth inhibition of human HCT15 cells after 21 hrs by MTT assay
Description for LOX IMVI: Growth inhibition of human LOX-IMVI cells after 21 hrs by MTT assay
Description for MDA-MB-231: Growth inhibition of human MDA-MB-231 cells after 21 hrs by MTT assay
Description for NCI-H23: Growth inhibition of human NCI-H23 cells after 21 hrs by MTT assay
Description for PC-3: Growth inhibition of human PC3 cells after 21 hrs by MTT assay
Description for in vitro: Growth inhibition of human hepatocytes after 21 hrs by MTT assay

As usually defined, the GI50 is the concentration at which growth is held to half of that of the control. Higher therefore signals lower sensitivity of the cells. Broadly, the IC50 is the concentration needed to halve the response being measured. Low readings indicate greater potency, high ones weaker potency. Take `CC(C)=CCc1c2c(c3occ(-c4ccc(O)c(O)c4)c(=O)c3c1O)C=CC(C)(C)O2` [POMIFERIN]: the GI50 in the data set with MDA-MB-231 came out at 2.92 µM; in the data set with HCT-15, 1.32 µM; with NCI-H23, 5.14 µM; in the data set with ACHN, 3.18 µM; with LOX IMVI, 3.34 µM; in the data set with PC-3 it was 3.95 µM. Also, halving of growth in the data set “in vitro” (GI50 at 21 h) required 123 µM. Further, the IC50 at Histone deacetylase was found to be 1.05 µM.
For `CC(C)=CCc1c2c(c3occ(-c4ccc(O)cc4)c(=O)c3c1O)C=CC(C)(C)O2` [OSAJIN], the GI50 in the data set on MDA-MB-231 is 11.3 µM; in the data set with HCT-15 it was 9.65 µM; in the data set with NCI-H23, 12 µM; with ACHN, 12.1 µM; in the data set on LOX IMVI, 11 µM; in the data set on PC-3, 12.3 µM. In addition, the 50% growth inhibitory concentration (GI50) at 21 h in the data set “in vitro” was over 500 µM. For the same molecule, the IC50 on Histone deacetylase was 6.53 µM.
